From patent US20100104629A1, “CATIONIC LIPIDS AND USES THEREOF” (ABBOTT LABORATORIES, priority 2008, published 2010)

Key:
[1] = system: β-galactosidase in tumor sections; experiment: IHC analysis of β-galactosidase in intraliver tumors after i.v. dosing of formulated siRNA; assay type: in vivo, Scid female mice; design: key to β-galactosidase IHC staining score, column 1 / β-galactosidase IHC staining score, column 2 / β-galactosidase IHC staining score, column 3 / β-galactosidase IHC staining score, column 4 / β-galactosidase IHC staining score, column 5 / β-galactosidase IHC staining score, column 6: −: there was no staining, a small area of weak staining, or disperse strong single cell staining; +/−: there was 5% of the section with weak staining or one patch of strong staining; +: there was 15% of the section with strong staining; ++: there was ˜50% of the section with strong straining; +++: there was 80% of the section with strong straining; ++++: the whole section had strong staining
Method: The animal studies were carried out in accordance with internal Institutional Animal Care and Use Committee (IACUC) guidelines at Abbott Laboratories. Scid female mice at 6 to 8 weeks of age were obtained from Charles River Laboratory and used for intraliver tumor models. Mouse livers were exposed by vertical incision on mouse abdomens and the tumor cells were directly injected into the livers. The incision was closed by suture and wound clips. All cell lines used for creating xenograft tumors were subjected to the IMPACT profile I test (18 agents) at the University of Missouri Research Animal Diagnostic and Investigative Laboratory, and all cell lines were found negative for the 18 infectious agents tested. Tumor cells were suspended in a 1:1 mixture of S-MEM (Invitrogen, Carlsbad, Calif.) and matrigel (BD Bioscience, San Jose, Calif.) and inoculated at 1×10E6 cells per animal.
Treatments were started 3˜4 weeks after tumor inoculation. Formulated or unformulated siRNAs were administrated via tail vein (i.v) injection.
IHC was carried out as previously described [Li, L., et al., Evaluating hypoxia-inducible factor-1alpha as a cancer therapeutic target via inducible RNA interference in vivo. Cancer Res, 2005. 65(16): p. 7249-58]. Briefly, tumors were excised, cut into pieces of less than 3 mm in thickness and immediately fixed in buffered formalin solution with neutral pH (Sigma, St. Louis, Mo.). The formalin-fixed and paraffin-embedded tumor sections were then used for staining The mouse anti-β-galactosidase mAb (Promega, Madison, Wis.) was used to detect β-galactosidase in tumor sections. DAB (3,3′-diaminobenzidine) was used as the chromogen. IHC images were acquired using the Nikon TE2000 inverted microscope. The β-galactosidase staining was evaluated by 2 people independently based on the scoring system listed below. The average of the score was calculated for each tumor.
−, there was no staining, a small area of weak staining, or disperse strong single cell staining +/−, there was 5% of the section with weak staining or one patch of strong staining +, there was 15% of the section with strong staining ++, there was ˜50% of the section with strong straining +++, there was 80% of the section with strong straining ++++, the whole section had strong staining

MDA435-TetR-Luc cells = experiment: Transfection efficiency of MDA435-TetR-Luc cells with Lipid-Based Particles (TetRLuc assay); assay type: cell-based; details: formulation employing the cationic lipid
Method: To determine the knockdown efficacy of Lipid-Based Particles in an in vitro assay, MDA435-TetR-Luc cells (The positive readout reporter cell line MDA435-TetR-Luc contained a stably integrated copy of the luciferase gene expressed from a CMV promoter containing the tetR operator site. In addition, gene coding for a destabilized TetR protein was expressed in this cell line.) were plated in 96 well plate at a density of 10K cells per well in 100 ul of DMEM (Dulbecco's Modified Eagles Medium, Invitrogen Corp.) containing 10% fetal bovine serum (Invitrogen Corp.). Appropriate dilutions of Lipid-Based Particles were made in DMEM+10% fetal bovine serum medium, 10 ul of the diluted material was transferred into each well in triplicate. Transfected cells were further incubated at 37° C. for a period of 72 hours. […] The graphs represent average of triplicate readings of the Lipid-Based Particles treated sample divided by the average of readings from 9 wells treated with doxycycline.
The ability of novel cationic lipids to transfect siRNA in vitro was evaluated in the TetRLuc assay. By utilizing a releasable PEG lipid as for examples in formulations “a” or “b”, the transfection efficiency of the unshielded or partially shielded particle may be determined.

SMILES	β-galactosidase IHC staining score, column 1 ([1]; intraliver tumor, i.v. tail vein, column 1 of 6 (not further defined))	β-galactosidase IHC staining score, column 2 ([1]; intraliver tumor, i.v. tail vein, column 2 of 6 (not further defined))	β-galactosidase IHC staining score, column 3 ([1]; intraliver tumor, i.v. tail vein, column 3 of 6 (not further defined))	β-galactosidase IHC staining score, column 4 ([1]; intraliver tumor, i.v. tail vein, column 4 of 6 (not further defined))	β-galactosidase IHC staining score, column 5 ([1]; intraliver tumor, i.v. tail vein, column 5 of 6 (not further defined))	β-galactosidase IHC staining score, column 6 ([1]; intraliver tumor, i.v. tail vein, column 6 of 6 (not further defined))	in vivo delivery ([1]; formulation employing the cationic lipid)	in vitro transfection activity (MDA435-TetR-Luc cells)
C[C@H]1c2cccc(O)c2C(=O)C2=C(O)[C@]3(O)C(=O)C(C(N)=O)=C(O)[C@@H](N(C)C)[C@@H]3[C@@H](O)[C@@H]21 [Doxycycline]	+++	+++	+++	+++	+++	+++	–	–
CCCCC/C=C\C/C=C\CCCCCCCCOCC(CN1CCCC1)OCCCCCCCC/C=C\C/C=C\CCCCC (stereo not drawn) [Example 1, 1-(2,3-bis((9Z,12Z)-octadeca-9,12-dienyloxy)propyl)pyrrolidine]	–	–	–	–	–	–	efficient in vivo delivery	provided in vitro transfection activity
CCCCC/C=C\C/C=C\CCCCCCCCOCC(CN(CC)CC)OCCCCCCCC/C=C\C/C=C\CCCCC (stereo not drawn) [Example 57, N,N-diethyl-2,3-bis((9Z,12Z)-octadeca-9,12-dienyloxy)propan-1-amine]	–	–	–	–	–	–	–	may diminish activity
